# Earlier results as cited in patent US20180000940A1, “INJECTABLE FORMULATIONS OF PARACETAMOL” (TROIKAA PHARMACEUTICALS LIMITED, priority 2014, published 2018).
# Details: solution no 20: 30% propylene-glycol, 40% polyethylene-glycol 400, 30% water; 20° C.
smiles,measurement,value
"CC(=O)Nc1ccc(O)cc1 [paracetamol, Paracetamol]",Amount of paracetamol that can be dissolved,about 200 mg/ml
